Test results: ChEMBL document CHEMBL5331112, “Recent Advances in Pro-PROTAC Development to Address On-Target Off-Tumor Toxicity” (J Med Chem, 2023)
One block for each compound: values may come before it.

Columns and labels:
MCF7 [1] = experiment: Anticancer activity against human MCF7 cells xenografted in mouse assessed as cell growth inhibition […] relative to control; format: functional
[2] = biological target: von Hippel-Lindau disease tumor suppressor/Bromodomain-containing protein 4 (Homo sapiens, UniProt O60885+P40337); experiment: PROTAC activity at VHL/BRD4 in human MCF7 cells assessed as degradation of BRD4 incubated by Western blot assay; format: cell-based
Chain of von Hippel-Lindau disease tumor suppressor/Bromodomain-containing protein 4 (P40337 whole entry, looked up, other chains not shown): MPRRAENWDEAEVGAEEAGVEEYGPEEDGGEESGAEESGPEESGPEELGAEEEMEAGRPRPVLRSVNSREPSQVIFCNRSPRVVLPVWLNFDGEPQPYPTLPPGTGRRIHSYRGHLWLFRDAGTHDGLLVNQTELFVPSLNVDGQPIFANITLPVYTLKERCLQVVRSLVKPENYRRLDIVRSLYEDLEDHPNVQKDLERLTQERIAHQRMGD

MCF7 [3] = experiment: Anticancer activity against human MCF7 cells assessed as cell growth inhibition CCK8 assay; format: functional, cell-based
[4] = Cytotoxicity against human HFF-1 cells assessed as cell growth inhibition; format: toxicity, cell-based
SU-DHL-1 = experiment: Anticancer activity against human SU-DHL-1 cells assessed as cell growth inhibition; format: functional, cell-based

DC50 [2]: 22 nM
IC50 (MCF7 [3]): 56.9 nM
SMILES: CNC(=O)CCC(=O)OCCSSCCOC(=O)O[C@@H]1C[C@@H](C(=O)N[C@@H](C)c2ccc(-c3scnc3C)cc2)N(C(=O)[C@H](NC(=O)COCCOCCOCCNC(=O)C[C@@H]2N=C(c3ccc(Cl)cc3)c3c(sc(C)c3C)-n3c(C)nnc32)C(C)(C)C)C1
TGI (MCF7 [1]): 77.5%

SMILES: Cc1ncsc1-c1ccc([C@H](C)NC(=O)[C@@H]2C[C@@H](OC(=O)CCCCn3cc(CNC(=O)CC[C@H](NC(=O)c4ccc(NCc5cnc6nc(N)[nH]c(=O)c6n5)cc4)C(=O)O)nn3)CN2C(=O)[C@@H](NC(=O)COCCCOCCNC(=O)C[C@@H]2N=C(c3ccc(Cl)cc3)c3c(sc(C)c3C)-n3c(C)nnc32)C(C)(C)C)cc1
IC50 [4]: > 10000 nM

IC50 (SU-DHL-1): 200 nM
SMILES: Cc1cc(Nc2ncc(Cl)c(Nc3ccccc3S(=O)(=O)C(C)C)n2)c(OC(C)C)cc1C1CCN(C(=O)CCCC(=O)N[C@H](C(=O)N2C[C@H](OC(=O)CCCCn3cc(CNC(=O)CC[C@H](NC(=O)c4ccc(NCc5cnc6nc(N)[nH]c(=O)c6n5)cc4)C(=O)O)nn3)C[C@H]2C(=O)N[C@@H](C)c2ccc(-c3scnc3C)cc2)C(C)(C)C)CC1
